According to ChEMBL document CHEMBL4732189, “A facile synthesis of diaryl pyrroles led to the discovery of potent colchicine site antimitotic agents” (Eur J Med Chem, 2021):

Legend:
CCRF-CEM = experiment: Antiproliferative activity against human CCRF-CEM cells assessed as reduction in cell viability after 72 hrs by MTT assay; assay type: functional, cell-based
HL-60 = experiment: Antiproliferative activity against human HL-60 cells assessed as reduction in cell viability after 72 hrs by MTT assay; assay type: functional, cell-based; details: HL-60, 72 h
SEM cells = experiment: Antiproliferative activity against human SEM cells assessed as reduction in cell viability after 72 hrs by MTT assay; assay type: functional, cell-based
HeLa = experiment: cells; details: Homo sapiens, 72 h
Description: Antiproliferative activity against human HeLa cells assessed as reduction in cell viability after 72 hrs by MTT assay

A549 = experiment: cells; details: Homo sapiens, A549, 72 h
Description: Antiproliferative activity against human A549 cells assessed as reduction in cell viability after 72 hrs by MTT assay

HT-29 = experiment: cells; details: Homo sapiens, HT-29, 72 h
[1] = Inhibition of bovine brain tubulin polymerization incubated for 15 mins followed by GTP addition and measured after 20 mins by spectrophotometric method; assay type: tissue-based, Bos taurus
Bos taurus [2] = species on record: Bos taurus; experiment: Displacement of [3H]colchicine from bovine brain tubulin at 5 uM by DEAE-cellulose filter method relative to control; assay type: tissue-based
Bos taurus [3] = species on record: Bos taurus; experiment: Displacement of [3H]colchicine from bovine brain tubulin at 0.5 uM by DEAE-cellulose filter method relative to control; assay type: tissue-based
SGC-7901 = experiment: Antiproliferative activity against human SGC-7901 cells assessed as reduction in cell viability after 72 hrs by MTT assay; assay type: functional, cell-based; details: SGC-7901, 72 h
HT-1080 = experiment: Antiproliferative activity against human […] cells assessed as reduction in cell viability after 72 hrs by MTT assay; assay type: functional, cell-based; details: HT-1080, 72 h
KB = experiment: Antiproliferative activity against human KB cells assessed as reduction in cell viability after 72 hrs by MTT assay; assay type: functional, cell-based
Tubulin = experiment: Inhibition of tubulin (unknown origin) polymerization incubated for 90 mins by fluorescence-based assay; assay type: protein-complex assay, Homo sapiens

Row | Compound | IC50 (CCRF-CEM) | IC50 (HL-60) | IC50 (HeLa) | IC50 (A549) | IC50 (HT-29) | IC50 [1] | inhibition (Bos taurus [2]) | inhibition (Bos taurus [3]) | IC50 (SGC-7901) | IC50 (HT-1080) | IC50 (KB) | IC50 (Tubulin) | IC50 (SEM cells)
1 | CCc1ccc(-c2cccn2-c2cc(OC)c(OC)c(OC)c2)cc1 | 3010 nM | 1130 nM | 9920 nM | > 10000 nM | 5440 nM |  |  |  |  |  |  |  | 310 nM
2 | COCOc1ccc(-c2c[nH]cc2-c2cc(OC)c(OC)c(OC)c2)cc1 | > 10000 nM | > 10000 nM | > 10000 nM | 8000 nM | > 10000 nM |  |  |  |  |  |  |  | > 10000 nM
3 | CCCc1ccc(-c2cccn2-c2cc(OC)c(OC)c(OC)c2)cc1 | 4910 nM | > 10000 nM | > 10000 nM | > 10000 nM | > 10000 nM |  |  |  |  |  |  |  | > 10000 nM
4 | COc1cccc(-n2cccc2-c2cc(OC)c(OC)c(OC)c2)c1 | 5010 nM | 3110 nM | > 10000 nM | > 10000 nM | > 10000 nM |  |  |  |  |  |  |  | 2010 nM
5 | COc1cc(-c2cccn2-c2ccc(N(C)C)cc2)cc(OC)c1OC | 3910 nM | 2620 nM | 5610 nM | > 10000 nM | 7120 nM |  |  |  |  |  |  |  | 610 nM
6 | COc1cc(-n2cccc2-c2ccc(C)c(C)c2)cc(OC)c1OC | 3200 nM | 4010 nM | 3280 nM | > 10000 nM | 7810 nM |  |  |  |  |  |  |  | 750 nM
7 | CCCOc1ccc(-c2c[nH]cc2-c2cc(OC)c(OC)c(OC)c2)cc1 | 4240 nM | 3620 nM | 370 nM | 683 nM | 703 nM |  |  |  |  |  |  |  | 913 nM
8 | COc1cc(-c2cccn2-c2ccc(C)c(C)c2)cc(OC)c1OC | 3510 nM | 4010 nM | > 10000 nM | > 10000 nM | > 10000 nM |  |  |  |  |  |  |  | 2010 nM
9 | CCSc1ccc(-c2cccn2-c2cc(OC)c(OC)c(OC)c2)cc1 | 4630 nM | 3720 nM | 3910 nM | > 10000 nM | 9420 nM |  |  |  |  |  |  |  | 1550 nM
10 | COc1cc(-c2cccn2-c2cccc3ccccc23)cc(OC)c1OC | 8610 nM | > 10000 nM | > 10000 nM | > 10000 nM | > 10000 nM |  |  |  |  |  |  |  | 7120 nM
11 | COc1cc(-n2cccc2-c2cc3ccccc3s2)cc(OC)c1OC | 2920 nM | 3010 nM | 950 nM | > 10000 nM | 5910 nM |  |  |  |  |  |  |  | 290 nM
12 | CCc1ccc(-n2cccc2-c2cc(OC)c(OC)c(OC)c2)cc1 | 4310 nM | 3610 nM | > 10000 nM | > 10000 nM | 8340 nM |  |  |  |  |  |  |  | 1330 nM
13 | COc1ccc(-n2cccc2-c2cc(OC)c(OC)c(OC)c2)cc1N |  |  |  |  |  |  |  |  | 390 nM | 70 nM | 45 nM | 10000 nM | 
14 | COc1ccc(/C=C\c2cc(OC)c(OC)c(OC)c2)cc1O [COMBRETASTATIN A4] | 2 nM |  |  |  |  |  |  |  |  |  |  |  | 5 nM
15 | COc1cc(-n2cccc2-c2cc(C)c(OC)c(C)c2)cc(OC)c1OC | 9110 nM | > 10000 nM | > 10000 nM | > 10000 nM | > 10000 nM |  |  |  |  |  |  |  | 7920 nM
16 | COc1cc(-c2c[nH]cc2-c2ccc(OC(F)(F)F)cc2)cc(OC)c1OC | 6260 nM | 5950 nM | 5230 nM | 4230 nM | 5460 nM |  |  |  |  |  |  |  | 4790 nM
17 | CCOc1ccc(-n2cccc2-c2cc(OC)c(OC)c(OC)c2)cc1 | 3020 nM | 430 nM | 3420 nM | > 10000 nM | 5520 nM | 2300 nM | 57% |  |  |  |  |  | 270 nM
18 | CCSc1ccc(-c2c[nH]cc2-c2cc(OC)c(OC)c(OC)c2)cc1 | 3070 nM | 2660 nM | 386 nM | 336 nM | 630 nM |  |  |  |  |  |  |  | 480 nM

Further lines, with some results ahead:

Row | IC50 (CCRF-CEM) | IC50 (HL-60) | IC50 (HeLa) | IC50 (A549) | IC50 (HT-29) | IC50 [1] | inhibition (Bos taurus [2]) | inhibition (Bos taurus [3]) | IC50 (SGC-7901) | IC50 (HT-1080) | IC50 (KB) | IC50 (Tubulin) | Compound | IC50 (SEM cells)
19 | 1410 nM | 400 nM | 430 nM | 5520 nM | 840 nM | 1600 nM | 70% |  |  |  |  |  | COc1cc(-c2cccn2-c2ccc3ccccc3c2)cc(OC)c1OC | 190 nM
20 | 2920 nM | 390 nM | 350 nM | 8400 nM | 730 nM | 1300 nM | 68% |  |  |  |  |  | CCOc1ccc(-c2cccn2-c2cc(OC)c(OC)c(OC)c2)cc1Cl | 100 nM
21 | 1310 nM | 400 nM | 410 nM | 3100 nM | 650 nM | 1600 nM | 74% |  |  |  |  |  | COc1cc(-n2cccc2-c2ccc3ccccc3c2)cc(OC)c1OC | 150 nM
22 | 117 nM | 255 nM | 28 nM | 88 nM | 31 nM |  |  |  |  |  |  |  | COc1ccc(-c2c[nH]cc2-c2cc(OC)c(OC)c(OC)c2)cc1 | 34.6 nM
23 | 2810 nM | 3620 nM | > 10000 nM | > 10000 nM | > 10000 nM |  |  |  |  |  |  |  | COc1cc(-c2cccn2-c2cc(OC)c(OC)c(OC)c2)ccc1C | 2310 nM
24 | 155 nM | 35.3 nM | 43 nM | 228 nM | 383 nM |  |  |  |  |  |  |  | COc1cc(-c2c[nH]cc2-c2cc3ccccc3s2)cc(OC)c1OC | 37.3 nM
25 | 2410 nM | 630 nM | 3310 nM | > 10000 nM | 5220 nM | 2400 nM | 55% |  |  |  |  |  | COc1cc(-c2cccn2-c2ccc(C)cc2)cc(OC)c1OC | 140 nM
26 | 1910 nM | 360 nM | 390 nM | 4520 nM | 390 nM | 5600 nM | 63% |  |  |  |  |  | CCOc1ccc(-c2cccn2-c2cc(OC)c(OC)c(OC)c2)cc1 | 140 nM
27 | 16.6 nM | 149 nM | 37 nM | 81 nM | 42 nM | 820 nM | 92% | 80% |  |  |  |  | CCOc1ccc(-c2c[nH]cc2-c2cc(OC)c(OC)c(OC)c2)cc1 | 2.8 nM
28 | 47 nM | 31.7 nM | 54 nM | 98 nM | 130 nM | 1200 nM | 83% |  |  |  |  |  | COc1cc(-c2c[nH]cc2-c2ccc(C)cc2)cc(OC)c1OC | 17.2 nM
29 | 280 nM | 177 nM | 297 nM | 243 nM | 279 nM |  |  |  |  |  |  |  | COc1ccc(-c2c[nH]cc2-c2cc(OC)c(OC)c(OC)c2)cc1Cl | 69.3 nM
30 | 2810 nM | 810 nM | > 10000 nM | > 10000 nM | > 10000 nM |  |  |  |  |  |  |  | COc1cc(-n2cccc2-c2ccc(SC)cc2)cc(OC)c1OC | 200 nM
31 | 1340 nM | 933 nM | 445 nM | 408 nM | 865 nM |  |  |  |  |  |  |  | COc1cc(-c2c[nH]cc2-c2ccc(C(F)(F)F)cc2)cc(OC)c1OC | 343 nM
32 | 2510 nM | 470 nM | 1920 nM | > 10000 nM | 2120 nM |  |  |  |  |  |  |  | COc1ccc(-c2cccn2-c2cc(OC)c(OC)c(OC)c2)cc1 | 150 nM
33 | 2430 nM | 350 nM | 3220 nM | 9620 nM | 3910 nM | 1600 nM | 60% |  |  |  |  |  | COc1cc(-n2cccc2-c2ccc(C)cc2)cc(OC)c1OC | 270 nM
34 | 87.9 nM | 54 nM | 137 nM | 228 nM | 255 nM |  |  |  |  |  |  |  | COc1cc(-c2c[nH]cc2-c2ccc3ccccc3c2)cc(OC)c1OC | 32 nM
35 | 1710 nM | 370 nM | 6120 nM | 9010 nM | 4120 nM | 2600 nM | 64% |  |  |  |  |  | COc1ccc(-c2cccn2-c2cc(OC)c(OC)c(OC)c2)cc1F | 200 nM
36 | 2510 nM | 3930 nM | 9810 nM | > 10000 nM | > 10000 nM |  |  |  |  |  |  |  | COc1ccc(-c2cccn2-c2cc(OC)c(OC)c(OC)c2)cc1C | 1010 nM
37 | 53 nM | 33.6 nM | 33 nM | 203 nM | 48 nM |  |  |  |  |  |  |  | COc1ccc(-c2c[nH]cc2-c2cc(OC)c(OC)c(OC)c2)cc1F | 5.3 nM
38 | 2910 nM | 3220 nM | 9810 nM | > 10000 nM | > 10000 nM |  |  |  |  |  |  |  | COc1ccc(-c2cccn2-c2cc(OC)c(OC)c(OC)c2)cc1Cl | 550 nM
39 | 153 nM | 144 nM | 37 nM | 79 nM | 64 nM | 710 nM | 90% | 68% |  |  |  |  | CCOc1ccc(-c2c[nH]cc2-c2cc(OC)c(OC)c(OC)c2)cc1Cl | 39 nM
40 | 226 nM | 164 nM | 297 nM | 257 nM | 289 nM |  |  |  |  |  |  |  | CCc1ccc(-c2c[nH]cc2-c2cc(OC)c(OC)c(OC)c2)cc1 | 48 nM
